Laboratory results taken from US20040266732A1, “Therapeutic agents, methods, and treatments” (priority 2002, published 2004).

Tests used:
Assay in all cases: NCI 60 cell-line test
Type in all cases: cell-based, human
OVCAR-5 = OVCAR-5 (Ovarian Cancer)
Description: (§1) Methodology: The NCI conducted a test of the MT103 drug against 60 human cell lines, with a minimum of five concentrations of MT103 at 10-fold dilutions. A 48 hour continuous drug exposure was used, and a sulforhodamine B (SRB) protein assay was used to estimate cell viability and growth. The human tumor cell lines of the cancer screening panel were grown in RPMI 1640 medium containing 5% fetal bovine serum and 2 mM L-glutamine. Cells were inoculated into 96 well microtiter plates in 100 μL at plating densities ranging from 5,000 to 40,000 cells/well depending on the doubling time of individual cell lines. After cell inoculation, the microtiter plates are incubated at 37° C., 5% CO2, 95% air, and 100% relative humidity for 24 h prior to addition of experimental drugs.
(§2) After 24 h, two plates of each cell line were fixed in situ with TCA, to represent a measurement of the cell population for each cell line at the time of drug addition (Tz). MT103 was solubilized in dimethyl sulfoxide at 400-fold the desired final maximum test concentration and stored frozen prior to use. At the time of drug addition, an aliquot of frozen concentrate was thawed and diluted to twice the desired final maximum test concentration with complete medium containing 50 μg/ml gentamicin. Additional four, 10-fold or ½ log serial dilutions were made to provide a total of five drug concentrations plus control. Aliquots of 100 μl of these different drug dilutions were added to the appropriate microtiter wells already containing 100 μl of medium, resulting in the required final drug concentrations.
(§3) Following drug addition, the plates were incubated for an additional 48 h at 37° C., 5% CO2, 95% air, and 100% relative humidity. For adherent cells, the assay was terminated by the addition of cold TCA. Cells were fixed in situ by the gentle addition of 50 μl of cold 50% (w/v) TCA (final concentration, 10% TCA) and incubated for 60 minutes at 4° C. The supernatant was discarded, and the plates were washed five times with tap water and air dried. Sulforhodamine B (SRB) solution (100 μl) at 0.4% (w/v) in 1% acetic acid was added to each well, and plates were incubated for 10 minutes at room temperature. After staining, unbound dye was removed by washing five times with 1% acetic acid and the plates were air-dried. Bound stain was subsequently solubilized with 10 mM trizma base, and the absorbance was read on an automated plate reader at a wavelength of 515 nm. For suspension cells, the methodology was the same except that the assay was terminated by fixing settled cells at the bottom of the wells by gently adding 50 μl of 80% TCA (final concentration, 16% TCA). Using the seven absorbance measurements (time zero, (Tz), control growth, (C), and test growth in the presence of drug at the five concentration levels (Ti)), the percentage growth was calculated at each of the drug concentrations levels. Percentage growth inhibition was calculated as:
(§4) [(Ti-Tz)/(C-Tz)]×100 for concentrations for which Ti>/=Tz
(§5) [(Ti-Tz)/Tz]×100 for concentrations for which Ti<Tz.
(§6) Three dose response parameters were calculated for each experimental agent. Growth inhibition of 50% (GI50) was calculated from [(Ti-Tz)/(C-Tz)]×100=50, which is the drug concentration resulting in a 50% reduction in the net protein increase (as measured by SRB staining) in control cells during the drug incubation. The drug concentration resulting in total growth inhibition (TGI) was calculated from Ti=Tz. The LC50 (concentration of drug resulting in a 50% reduction in the measured protein at the end of the drug treatment as compared to that at the beginning) indicating a net loss of cells following treatment was calculated from [(Ti-Tz)/Tz]×100=−50. Values were calculated for each of these three parameters if the level of activity is reached; however, if the effect was not reached or was exceeded, the value for that parameter was expressed as greater or less than the maximum or minimum concentration tested.

SN12C = SN12C (Renal Cancer)
Description: as §1, §2, §3, §4, §5, §6

UACC-62 = UACC-62 (Melanoma)
Description: as §1, §2, §3, §4, §5, §6

COLO 205 = COLO 205 (Colon Cancer)
Description: as §1, §2, §3, §4, §5, §6

MDA-N = MDA-N (Breast Cancer)
Description: as §1, §2, §3, §4, §5, §6

HCT-15 = HCT-15 (Colon Cancer)
Description: as §1, §2, §3, §4, §5, §6

DU-145 = DU-145 (Prostate Cancer)
Description: as §1, §2, §3, §4, §5, §6

SF-268 = SF-268 (CNS Cancer)
Description: as §1, §2, §3, §4, §5, §6

M14 = M14 (Melanoma)
Description: as §1, §2, §3, §4, §5, §6

IGROV1 = IGROV1 (Ovarian Cancer)
Description: as §1, §2, §3, §4, §5, §6

U251 = U251 (CNS Cancer)
Description: as §1, §2, §3, §4, §5, §6

HL-60 (TB) = HL-60 (TB) (Leukemia)
Description: as §1, §2, §3, §4, §5, §6

SW-620 = SW-620 (Colon Cancer)
Description: as §1, §2, §3, §4, §5, §6

CCRF-CEM = CCRF-CEM (Leukemia)
Description: as §1, §2, §3, §4, §5, §6

OVCAR-4 = OVCAR-4 (Ovarian Cancer)
Description: as §1, §2, §3, §4, §5, §6

[1] = read-out: LC50 (the source's name)

Question: What does the source list for CC1(C)C2CC[C@@]1(CS(=O)(=O)N(C1CCCCC1)C1CCCCC1)C(O)C2 (stereo partly drawn) [MT103]?
Answer: TGI (OVCAR-5): 5.70E−05; IC50 (OVCAR-5; read-out: G150): 23.7 µM; CC50 (OVCAR-5; [1]): > 100 µM; TGI (SN12C): >1.00E−04; IC50 (SN12C; read-out: G150): 33 µM; CC50 (SN12C; [1]): > 100 µM; TGI (UACC-62): 4.65E−05; IC50 (UACC-62; read-out: G150): 18.8 µM; CC50 (UACC-62; [1]): > 100 µM; TGI (COLO 205): 4.98E−05; IC50 (COLO 205; read-out: G150): 21.3 µM; CC50 (COLO 205; [1]): > 100 µM; TGI (MDA-N): >1.00E−04; IC50 (MDA-N; read-out: G150): 27.1 µM; CC50 (MDA-N; [1]): > 100 µM; TGI (HCT-15): >1.00E−04; IC50 (HCT-15; read-out: G150): 25.7 µM; CC50 (HCT-15; [1]): > 100 µM; TGI (DU-145): >1.00E−04; IC50 (DU-145; read-out: G150): 30.5 µM; CC50 (DU-145; [1]): > 100 µM; TGI (SF-268): >1.00E−04; IC50 (SF-268; read-out: G150): 35.8 µM; CC50 (SF-268; [1]): > 100 µM; TGI (M14): >1.00E−04; IC50 (M14; read-out: G150): 67.8 µM; CC50 (M14; [1]): > 100 µM; TGI (IGROV1): >1.00E−04; IC50 (IGROV1; read-out: G150): 34.8 µM; CC50 (IGROV1; [1]): > 100 µM; TGI (U251): >1.00E−04; IC50 (U251; read-out: G150): 28.7 µM; CC50 (U251; [1]): > 100 µM; TGI (HL-60 (TB)): 8.33E−05; IC50 (HL-60 (TB); read-out: G150): 19 µM; CC50 (HL-60 (TB); [1]): > 100 µM; TGI (SW-620): >1.00E−04; IC50 (SW-620; read-out: G150): 28.8 µM; CC50 (SW-620; [1]): > 100 µM; TGI (CCRF-CEM): >1.00E−04; IC50 (CCRF-CEM; read-out: G150): 29.7 µM; CC50 (CCRF-CEM; [1]): > 100 µM; TGI (OVCAR-4): >1.00E−04; IC50 (OVCAR-4; read-out: G150): 30.2 µM; CC50 (OVCAR-4; [1]): > 100 µM
